# Reference: ChEMBL document CHEMBL1212752, “Efficacy of posaconazole in a murine disseminated infection by Candida tropicalis” (2010)
# Calls of active or inactive are those of the source. The calls are words filed in the database; no cut-off is given here.
# Legend:
# Candida tropicalis [1] = experiment: Antifungal activity against Candida tropicalis FMR 8897 assessed as inhibition of growth by broth dilution method; format: functional
# Candida tropicalis [2] = experiment: Antifungal activity against Candida tropicalis FMR 8898 assessed as compound concentration causing =>99% reduction in microbial growth; format: functional
# Candida tropicalis [3] = experiment: Antifungal activity against Candida tropicalis FMR 8895 infected in immunosuppressed OF1 mouse assessed as prolongation of mouse survival at 25 mg/kg, po bid for 5 days; format: functional, organism-based; design: dose 25 mg/kg
# Candida tropicalis [4] = experiment: Antifungal activity against Candida tropicalis FMR 9726 infected in immunosuppressed OF1 mouse assessed as reduction in fungal tissue burden in mouse spleen at 25 mg/kg, po bid for 5 days; format: functional, organism-based; design: dose 25 mg/kg
# Candida tropicalis [5] = experiment: Antifungal activity against Candida tropicalis FMR 10333 assessed as compound concentration causing =>99% reduction in microbial growth; format: functional
# Candida tropicalis [6] = experiment: Antifungal activity against Candida tropicalis FMR 10239 infected in immunosuppressed OF1 mouse assessed as prolongation of mouse survival at 50 mg/kg, po qd for 5 days; format: functional, organism-based; design: dose 50 mg/kg
# Candida tropicalis [7] = experiment: Antifungal activity against Candida tropicalis FMR 8895 assessed as inhibition of growth by broth dilution method; format: functional
# Candida tropicalis [8] = experiment: Antifungal activity against Candida tropicalis FMR 8895 assessed as compound concentration causing =>99% reduction in microbial growth; format: functional
# Candida tropicalis [9] = experiment: Antifungal activity against Candida tropicalis FMR 10234 assessed as inhibition of growth by broth dilution method; format: functional
# Candida tropicalis [10] = experiment: Antifungal activity against Candida tropicalis FMR 8897 assessed as compound concentration causing =>99% reduction in microbial growth; format: functional
# Candida tropicalis [11] = experiment: Antifungal activity against Candida tropicalis FMR 10234 assessed as compound concentration causing =>99% reduction in microbial growth; format: functional
# Candida tropicalis [12] = experiment: Antifungal activity against Candida tropicalis FMR 9727 infected in immunosuppressed OF1 mouse assessed as reduction in fungal tissue burden in mouse kidney at 25 mg/kg, po bid for 5 days; format: functional, organism-based; design: dose 25 mg/kg
# Candida tropicalis [13] = experiment: Antifungal activity against Candida tropicalis FMR 10239 assessed as inhibition of growth by broth dilution method; format: functional
# Candida tropicalis [14] = experiment: Antifungal activity against Candida tropicalis FMR 10235 assessed as inhibition of growth by broth dilution method; format: functional
# Candida tropicalis [15] = experiment: Antifungal activity against Candida tropicalis FMR 10239 infected in immunosuppressed OF1 mouse assessed as reduction in fungal tissue burden in mouse spleen at 50 mg/kg, po qd for 5 days; format: functional, organism-based; design: dose 50 mg/kg
# Candida tropicalis [16] = experiment: Antifungal activity against Candida tropicalis FMR 8895 infected in immunosuppressed OF1 mouse assessed as reduction in fungal tissue burden in mouse spleen at 25 mg/kg, po bid for 5 days; format: functional, organism-based; design: dose 25 mg/kg
# Candida tropicalis [17] = experiment: Antifungal activity against Candida tropicalis FMR 9726 assessed as inhibition of growth by broth dilution method; format: functional
# Candida tropicalis [18] = experiment: Antifungal activity against Candida tropicalis FMR 9726 infected in immunosuppressed OF1 mouse assessed as reduction in fungal tissue burden in mouse spleen at 50 mg/kg, po qd for 5 days; format: functional, organism-based; design: dose 50 mg/kg
# Candida tropicalis [19] = experiment: Antifungal activity against Candida tropicalis FMR 9726 infected in immunosuppressed OF1 mouse assessed as reduction in fungal tissue burden in mouse kidney at 50 mg/kg, po qd for 5 days; format: functional, organism-based; design: dose 50 mg/kg
# Candida tropicalis [20] = experiment: Antifungal activity against Candida tropicalis FMR 10235 assessed as compound concentration causing =>99% reduction in microbial growth; format: functional
# Candida tropicalis [21] = experiment: Antifungal activity against Candida tropicalis FMR 10237 infected in immunosuppressed OF1 mouse assessed as prolongation of mouse survival at 25 mg/kg, po bid for 5 days; format: functional, organism-based; design: dose 25 mg/kg
# Candida tropicalis [22] = experiment: Antifungal activity against Candida tropicalis FMR 9727 infected in immunosuppressed OF1 mouse assessed as reduction in fungal tissue burden in mouse spleen at 25 mg/kg, po bid for 5 days; format: functional, organism-based; design: dose 25 mg/kg
# Candida tropicalis [23] = experiment: Antifungal activity against Candida tropicalis FMR 9727 assessed as inhibition of growth by broth dilution method; format: functional
# Candida tropicalis [24] = experiment: Antifungal activity against Candida tropicalis FMR 10237 infected in immunosuppressed OF1 mouse assessed as prolongation of mouse survival at 50 mg/kg, po qd for 5 days; format: functional, organism-based; design: dose 50 mg/kg
# Candida tropicalis [25] = experiment: Antifungal activity against Candida tropicalis FMR 8898 assessed as inhibition of growth by broth dilution method; format: functional
# Candida tropicalis [26] = experiment: Antifungal activity against Candida tropicalis FMR 8895 infected in immunosuppressed OF1 mouse assessed as reduction in fungal tissue burden in mouse spleen at 50 mg/kg, po qd for 5 days; format: functional, organism-based; design: dose 50 mg/kg
# Candida tropicalis [27] = experiment: Antifungal activity against Candida tropicalis FMR 10239 assessed as compound concentration causing =>99% reduction in microbial growth; format: functional
# Candida tropicalis [28] = experiment: Antifungal activity against Candida tropicalis FMR 9726 infected in immunosuppressed OF1 mouse assessed as reduction in fungal tissue burden in mouse kidney at 25 mg/kg, po bid for 5 days; format: functional, organism-based; design: dose 25 mg/kg
# Candida tropicalis [29] = experiment: Antifungal activity against Candida tropicalis FMR 9727 infected in immunosuppressed OF1 mouse assessed as prolongation of mouse survival at 25 mg/kg, po bid for 5 days; format: functional, organism-based; design: dose 25 mg/kg
# Candida tropicalis [30] = experiment: Antifungal activity against Candida tropicalis FMR 10236 assessed as compound concentration causing =>99% reduction in microbial growth; format: functional
# Candida tropicalis [31] = experiment: Antifungal activity against Candida tropicalis FMR 10240 assessed as compound concentration causing =>99% reduction in microbial growth; format: functional
# Candida tropicalis [32] = experiment: Antifungal activity against Candida tropicalis FMR 10239 infected in immunosuppressed OF1 mouse assessed as prolongation of mouse survival at 25 mg/kg, po bid for 5 days; format: functional, organism-based; design: dose 25 mg/kg
smiles,measurement,setting,value
CC[C@@H]([C@H](C)O)n1ncn(-c2ccc(N3CCN(c4ccc(OC[C@@H]5CO[C@@](Cn6cncn6)(c6ccc(F)cc6F)C5)cc4)CC3)cc2)c1=O [POSACONAZOLE],MIC50,Candida tropicalis [1],0.06 µg/mL
same,MFC,Candida tropicalis [2],> 16 µg/mL
same,Activity,Candida tropicalis [3],Active
same,Activity,Candida tropicalis [4],Active
same,MFC,Candida tropicalis [5],> 16 µg/mL
same,Activity,Candida tropicalis [6],Active
same,MIC50,Candida tropicalis [7],> 16 µg/mL
same,MFC,Candida tropicalis [8],> 16 µg/mL
same,MIC50,Candida tropicalis [9],0.06 µg/mL
same,MFC,Candida tropicalis [10],> 16 µg/mL
same,MFC,Candida tropicalis [11],> 16 µg/mL
same,Activity,Candida tropicalis [12],Active
same,MIC50,Candida tropicalis [13],< 0.03 µg/mL
same,MIC50,Candida tropicalis [14],0.125 µg/mL
same,Activity,Candida tropicalis [15],Active
same,Activity,Candida tropicalis [16],inactive
same,MIC50,Candida tropicalis [17],0.5 µg/mL
same,Activity,Candida tropicalis [18],Active
same,Activity,Candida tropicalis [19],Active
same,MFC,Candida tropicalis [20],> 16 µg/mL
same,Activity,Candida tropicalis [21],Active
same,Activity,Candida tropicalis [22],Active
same,MIC50,Candida tropicalis [23],< 0.03 µg/mL
same,Activity,Candida tropicalis [24],Active
same,MIC50,Candida tropicalis [25],0.125 µg/mL
same,Activity,Candida tropicalis [26],inactive
same,MFC,Candida tropicalis [27],1 µg/mL
same,Activity,Candida tropicalis [28],Active
same,Activity,Candida tropicalis [29],Active
same,MFC,Candida tropicalis [30],> 16 µg/mL
same,MFC,Candida tropicalis [31],> 16 µg/mL
same,Activity,Candida tropicalis [32],Active
